Among the data in US7632811B2, “Analogs of parathyroid hormone” (Societe de Conseils de Recherches et D'Applications …, priority 1995, dated 2009) are Kd values, retold here.

Non-standard residues stand in square brackets, D forms with d. Residues, ends and D or L forms follow the SMILES beside them. hArg = N=C(N)NCCCC[C@H](N)C(=O)O; Cha = N[C@@H](CC1CCCCC1)C(=O)O; Ac6c = NC1(C(=O)O)CCCCC1; Nle = CCCC[C@H](N)C(=O)O; Aib = CC(C)(N)C(=O)O

In one assay the target is T1, PTH receptor present on SaOS-2 (human osteosarcoma cells) (Homo sapiens, UniProt Q03431).
T1 construct: host or cells: SaOS-2 human osteosarcoma cells (intact, confluent monolayers)
T1 sequence (Q03431 27-593): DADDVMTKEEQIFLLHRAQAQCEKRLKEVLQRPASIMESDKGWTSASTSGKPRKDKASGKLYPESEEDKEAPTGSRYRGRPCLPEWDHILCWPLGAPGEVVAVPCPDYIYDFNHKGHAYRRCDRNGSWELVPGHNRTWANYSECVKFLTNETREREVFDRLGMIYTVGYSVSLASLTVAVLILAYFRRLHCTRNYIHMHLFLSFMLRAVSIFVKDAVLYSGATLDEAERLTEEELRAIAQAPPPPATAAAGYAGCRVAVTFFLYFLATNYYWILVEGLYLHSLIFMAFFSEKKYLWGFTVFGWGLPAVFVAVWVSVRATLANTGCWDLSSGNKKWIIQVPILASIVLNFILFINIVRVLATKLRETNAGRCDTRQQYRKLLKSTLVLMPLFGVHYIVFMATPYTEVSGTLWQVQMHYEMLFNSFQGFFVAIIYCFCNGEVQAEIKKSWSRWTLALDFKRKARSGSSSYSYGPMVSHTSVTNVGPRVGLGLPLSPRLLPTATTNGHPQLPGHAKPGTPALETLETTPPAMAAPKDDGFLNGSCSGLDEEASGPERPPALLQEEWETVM
Put plainly: Binding to PTH receptor on SaOS-2 cells (competition with mono-125I-[Nle8,18,Tyr34(3-125I)]bPTH(1-34)NH2). The conditions noted are these: Table I, 2 hrs at room temperature, read-out: Kd (half maximal inhibition of binding of mono-125I-[Nle8,18, Tyr34(3-125I)]bPTH(1-34)NH2). A digest of the protocol:
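Confluent SaOS-2 cells in 5% FBS RPMI were incubated 2 h at room temperature with 10×10^4 cpm mono-125I-[Nle8,18,Tyr34(3-125I)]bPTH(1-34)NH2 plus competing peptide at 10^−11 to 10^−4 M. After washing, cell-bound radioactivity was counted; Kd taken as half-maximal inhibition of tracer binding.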
In the case of `CC[C@H](C)[C@H](NC(=O)[C@H](CCC(=O)O)NC(=O)[C@H](CO)NC(=O)[C@@H](NC(=O)[C@@H](N)CO)C(C)C)C(=O)N[C@@H](CCC(N)=O)C(=O)N[C@@H](CC(C)C)C(=O)N[C@@H](CCSC)C(=O)N[C@@H](Cc1c[nH]cn1)C(=O)N[C@@H](CC(N)=O)C(=O)N[C@@H](CC(C)C)C(=O)NCC(=O)N[C@@H](CCCCN)C(=O)N[C@@H](Cc1c[nH]cn1)C(=O)N[C@@H](CC(C)C)C(=O)N[C@@H](CC(N)=O)C(=O)N[C@@H](CO)C(=O)N[C@@H](CCSC)C(=O)N[C@@H](CCC(=O)O)C(=O)N[C@@H](CCCNC(=N)N)C(=O)N[C@H](C(=O)N[C@@H](CCC(=O)O)C(=O)N[C@@H](Cc1c[nH]c2ccccc12)C(=O)N[C@@H](CC(C)C)C(=O)N[C@@H](CCCNC(=N)N)C(=O)N[C@@H](CCCCN)C(=O)N[C@@H](CCCCNC(=N)N)C(=O)N[C@@H](CC(C)C)C(=O)N[C@@H](CCC(N)=O)C(=O)N[C@@H](CC(=O)O)C(=O)N[C@H](C(=O)N[C@@H](Cc1c[nH]cn1)C(=O)N[C@@H](CC(N)=O)C(=O)N[C@@H](Cc1ccccc1)C(N)=O)C(C)C)C(C)C` [[hArg^27]hPTH(1-34)NH2] (H-SVSEIQLMHNLGKHLNSMERVEWLRK[hArg]LQDVHNF-NH2), the equilibrium dissociation constant (Kd) amounted to 7 nM.

Consider `CC[C@H](C)[C@H](NC(=O)[C@H](CCC(=O)O)NC(=O)[C@H](CO)NC(=O)[C@@H](NC(=O)[C@@H](N)CO)C(C)C)C(=O)N[C@@H](CCC(N)=O)C(=O)N[C@@H](CC(C)C)C(=O)N[C@@H](CCSC)C(=O)N[C@@H](Cc1c[nH]cn1)C(=O)N[C@@H](CC(N)=O)C(=O)N[C@@H](CC(C)C)C(=O)NCC(=O)N[C@@H](CCCCN)C(=O)N[C@@H](Cc1c[nH]cn1)C(=O)N[C@@H](CC1CCCCC1)C(=O)N[C@@H](CC(N)=O)C(=O)N[C@@H](CO)C(=O)N[C@@H](CCSC)C(=O)N[C@@H](CCC(=O)O)C(=O)N[C@@H](CCCNC(=N)N)C(=O)N[C@H](C(=O)N[C@@H](CCC(=O)O)C(=O)N[C@@H](Cc1c[nH]c2ccccc12)C(=O)N[C@@H](CC(C)C)C(=O)N[C@@H](CCCNC(=N)N)C(=O)N[C@@H](CCCCN)C(=O)N[C@@H](CCCCN)C(=O)N[C@@H](CC(C)C)C(=O)N[C@@H](CCC(N)=O)C(=O)N[C@@H](CC(=O)O)C(=O)N[C@H](C(=O)N[C@@H](Cc1c[nH]cn1)C(=O)N[C@@H](CC(N)=O)C(=O)N[C@@H](Cc1ccccc1)C(N)=O)C(C)C)C(C)C` [[Cha^15]hPTH(1-34)NH2] (H-SVSEIQLMHNLGKH[Cha]NSMERVEWLRKKLQDVHNF-NH2), for which the Kd turned out to be 5 nM.

Consider `CCCC[C@H](NC(=O)[C@H](CO)NC(=O)[C@H](CC(N)=O)NC(=O)[C@H](CC(C)C)NC(=O)[C@H](Cc1c[nH]cn1)NC(=O)[C@H](CCCCN)NC(=O)CNC(=O)[C@H](CC1CCCCC1)NC(=O)[C@H](CC(N)=O)NC(=O)[C@H](Cc1c[nH]cn1)NC(=O)[C@H](CCCC)NC(=O)[C@H](CC1CCCCC1)NC(=O)[C@H](CCC(N)=O)NC(=O)[C@@H](NC(=O)[C@H](CCC(=O)O)NC(=O)[C@H](CO)NC(=O)[C@@H](NC(=O)[C@@H](N)CO)C(C)C)[C@@H](C)CC)C(=O)N[C@@H](CCC(=O)O)C(=O)N[C@@H](CCCNC(=N)N)C(=O)N[C@H](C(=O)N[C@@H](CCC(=O)O)C(=O)N[C@@H](Cc1c[nH]c2ccccc12)C(=O)N[C@@H](CC(C)C)C(=O)N[C@@H](CCCNC(=N)N)C(=O)N[C@@H](CCCCN)C(=O)N[C@@H](CCCCN)C(=O)N[C@@H](CC(C)C)C(=O)N[C@@H](CCC(N)=O)C(=O)N[C@@H](CC(=O)O)C(=O)N[C@H](C(=O)N[C@@H](Cc1c[nH]cn1)C(=O)N[C@@H](CC(N)=O)C(=O)NC(C)(C)C(N)=O)C(C)C)C(C)C` [[Cha^7,11, Nle^8,18, Aib^34]hPTH(1-34)NH2] (H-SVSEIQ[Cha][Nle]HN[Cha]GKHLNS[Nle]ERVEWLRKKLQDVHN[Aib]-NH2), for which the Kd is 30 nM.

As to `CC[C@H](C)[C@H](NC(=O)[C@H](CCC(=O)O)NC(=O)[C@H](CO)NC(=O)[C@@H](NC(=O)[C@@H](N)CO)C(C)C)C(=O)N[C@@H](CCC(N)=O)C(=O)N[C@@H](CC(C)C)C(=O)N[C@@H](CCSC)C(=O)N[C@@H](Cc1c[nH]cn1)C(=O)N[C@@H](CC(N)=O)C(=O)N[C@@H](CC(C)C)C(=O)NCC(=O)N[C@@H](CCCCN)C(=O)N[C@@H](Cc1c[nH]cn1)C(=O)N[C@@H](CC(C)C)C(=O)NC(C)(C)C(=O)N[C@@H](CO)C(=O)N[C@@H](CCSC)C(=O)NC(C)(C)C(=O)N[C@@H](CCCNC(=N)N)C(=O)N[C@H](C(=O)N[C@@H](CCC(=O)O)C(=O)N[C@@H](Cc1c[nH]c2ccccc12)C(=O)N[C@@H](CC(C)C)C(=O)N[C@@H](CCCNC(=N)N)C(=O)N[C@@H](CCCCN)C(=O)N[C@@H](CCCCN)C(=O)N[C@@H](CC(C)C)C(=O)N[C@@H](CCC(N)=O)C(=O)N[C@@H](CC(=O)O)C(=O)N[C@H](C(=O)N[C@@H](Cc1c[nH]cn1)C(=O)N[C@@H](CC(N)=O)C(=O)N[C@@H](Cc1ccccc1)C(N)=O)C(C)C)C(C)C` [[Aib^16,19]hPTH(1-34)NH2] (H-SVSEIQLMHNLGKHL[Aib]SM[Aib]RVEWLRKKLQDVHNF-NH2), the Kd came out at 4 nM.

Consider `CC[C@H](C)[C@H](NC(=O)[C@H](CCC(=O)O)NC(=O)[C@H](CO)NC(=O)[C@@H](NC(=O)[C@@H](N)CO)C(C)C)C(=O)N[C@@H](CCC(N)=O)C(=O)N[C@@H](CC1CCCCC1)C(=O)N[C@@H](CCSC)C(=O)N[C@@H](Cc1c[nH]cn1)C(=O)N[C@@H](CC(N)=O)C(=O)N[C@@H](CC1CCCCC1)C(=O)NCC(=O)N[C@@H](CCCCN)C(=O)N[C@@H](Cc1c[nH]cn1)C(=O)N[C@@H](CC(C)C)C(=O)N[C@@H](CC(N)=O)C(=O)N[C@@H](CO)C(=O)N[C@@H](CCSC)C(=O)NC(C)(C)C(=O)N[C@@H](CCCNC(=N)N)C(=O)N[C@H](C(=O)N[C@@H](CCC(=O)O)C(=O)N[C@@H](Cc1c[nH]c2ccccc12)C(=O)N[C@@H](CC(C)C)C(=O)N[C@@H](CCCNC(=N)N)C(=O)N[C@@H](CCCCN)C(=O)N[C@@H](CCCCN)C(=O)N[C@@H](CC(C)C)C(=O)N[C@@H](CCC(N)=O)C(=O)N[C@@H](CC(=O)O)C(=O)N[C@H](C(=O)N[C@@H](Cc1c[nH]cn1)C(=O)N[C@@H](CC(N)=O)C(=O)N[C@@H](Cc1ccccc1)C(N)=O)C(C)C)C(C)C` [[Cha^7,11, Aib^19]hPTH(1-34)NH2] (H-SVSEIQ[Cha]MHN[Cha]GKHLNSM[Aib]RVEWLRKKLQDVHNF-NH2), for which the Kd worked out at 7 nM.

For the molecule `CC[C@H](C)[C@H](NC(=O)[C@H](CCC(=O)O)NC(=O)[C@H](CO)NC(=O)[C@@H](NC(=O)[C@@H](N)CO)C(C)C)C(=O)N[C@@H](CCC(N)=O)C(=O)N[C@@H](CC(C)C)C(=O)N[C@@H](CCSC)C(=O)N[C@@H](Cc1c[nH]cn1)C(=O)N[C@@H](CC(N)=O)C(=O)N[C@@H](CC(C)C)C(=O)NCC(=O)N[C@@H](CCCCN)C(=O)N[C@@H](Cc1c[nH]cn1)C(=O)N[C@@H](CC(C)C)C(=O)N[C@@H](CC(N)=O)C(=O)N[C@@H](CO)C(=O)N[C@@H](CCSC)C(=O)NC(C)(C)C(=O)N[C@@H](CCCNC(=N)N)C(=O)N[C@H](C(=O)N[C@@H](CCC(=O)O)C(=O)N[C@@H](Cc1c[nH]c2ccccc12)C(=O)N[C@@H](CC(C)C)C(=O)N[C@@H](CCCNC(=N)N)C(=O)N[C@@H](CCCCN)C(=O)N[C@@H](CCCCN)C(=O)N[C@@H](CC(C)C)C(=O)N[C@@H](CCC(N)=O)C(=O)N[C@@H](CC(=O)O)C(=O)N[C@H](C(=O)N[C@@H](Cc1c[nH]cn1)C(=O)N[C@@H](CC(N)=O)C(=O)N[C@@H](Cc1ccccc1)C(N)=O)C(C)C)C(C)C` [[Aib^19]hPTH(1-34)NH2] (H-SVSEIQLMHNLGKHLNSM[Aib]RVEWLRKKLQDVHNF-NH2), the Kd was found to be 5 nM.

Still in this assay, the particulars now being: Table II, 2 hrs at room temperature, read-out: Kd (half maximal inhibition of binding of mono-125I-[Nle8,18, Tyr34(3-125I)]bPTH(1-34)NH2).
Take `CC[C@H](C)[C@H](NC(=O)[C@H](CO)NC(=O)[C@H](CCCCN)NC(=O)CNC(=O)[C@H](CCCCN)NC(=O)[C@H](CC(=O)O)NC(=O)[C@H](Cc1c[nH]cn1)NC(=O)[C@H](CC(C)C)NC(=O)[C@H](CC(C)C)NC(=O)[C@H](CCC(N)=O)NC(=O)[C@H](Cc1c[nH]cn1)NC(=O)[C@H](CCC(=O)O)NC(=O)[C@H](CO)NC(=O)[C@@H](NC(=O)[C@H](C)N)C(C)C)C(=O)N[C@@H](CCC(N)=O)C(=O)N[C@@H](CC(=O)O)C(=O)N[C@@H](CC(C)C)C(=O)N[C@@H](CCCNC(=N)N)C(=O)N[C@@H](CCCNC(=N)N)C(=O)N[C@@H](CCCNC(=N)N)C(=O)N[C@@H](CCC(=O)O)C(=O)N[C@@H](CC(C)C)C(=O)N[C@@H](CC(C)C)C(=O)N[C@@H](CCC(=O)O)C(=O)N[C@@H](CCCCN)C(=O)NC1(C(=O)N[C@@H](CC(C)C)C(=O)NC(C)(C)C(=O)N[C@@H](CCCCN)C(=O)N[C@@H](CC(C)C)C(=O)N[C@@H](Cc2c[nH]cn2)C(=O)N[C@H](C(=O)N[C@@H](C)C(N)=O)[C@@H](C)O)CCCCC1` [[Glu^22,25, Leu^23,28,31, Lys^26,30, Ahc^27, Aib^29]hPTHrP(1-34)NH2] (H-AVSEHQLLHDKGKSIQDLRRRELLEK[Ac6c]L[Aib]KLHTA-NH2; N-terminus assumed): the Kd amounted to 230 nM.

The term Kd denotes the concentration at which binding is half-saturated.
